# Assay results as given in US12569453B2, “Use of tapinarof for the treatment of atopic dermatitis” (Dermavant Sciences GmbH, priority 2018, dated 2026).
# Assays:
# [1] = tested on: adolescent and adult subjects with AD; assay: Phase II clinical study in AD: efficacy and subject-reported outcomes; assay type: in vivo, human; details: for itch reduction in weekly average NRS (median): Week 4; for probability of achieving EASI75 / probability of achieving IGA treatment success: model; for patients with 75% improvement in EASI score: post-hoc analysis
# Text: This was a multicenter (United States, Canada, and Japan), randomized, double-blind (Sponsor-unblind), vehicle-controlled, 6-arm, parallel-group, dose-finding study in adolescent and adult subjects with AD.
# The study consisted of 3 periods: up to 4 weeks screening, 12 weeks double-blind treatment, and 4 weeks post-treatment Follow-up. Study visits occurred at Screening; Baseline; Weeks 1, 2, 4, 8, and 12 during the treatment period; and 2 and 4 weeks after the last application of study treatment (i.e., at Weeks 14 and 16). Additional visits could occur, as needed, to follow-up on any skin reactions or ongoing AEs. A subject's total duration of study participation was approximately 16 to 20 weeks.
# Two concentrations of Tapinarof cream (0.5% and 1%) and a vehicle control were evaluated following application to all AD lesions (except on the scalp) once or twice daily for 12 weeks. There were no planned dose adjustments during the study. It was expected that approximately 270 adolescent and adult subjects with AD would be screened to achieve 228 randomized subjects (1:1:1:1:1:1; N=3 8 for each of the 6 treatment groups) and approximately 204 evaluable subjects overall. At least 30 subjects were to be randomized in Japan to achieve at least 24 evaluable Japanese subjects. To ensure an adequate number of adolescents (aged 12 to 17 years) versus adults were represented in the overall study population, enrollment was limited to approximately 65% of either age group.
# Efficacy was assessed by using a 5-point static Investigator Global Assessment (IGA) (0-4 scale), the Eczema Area and Severity Index (EASI), percent of body surface area (% BSA) involvement, severity of AD signs using a Total Severity Score (TSS), and by subject-reported itch/pruritus severity using a numeric rating scale (NRS) (from the Daily Sign and Symptom Severity Diary). Additional subject-reported outcomes included the expanded Patient-Oriented Eczema Measure (POEM), a Daily Sign and Symptom Severity Diary, and subject impression of severity of eczema symptoms and overall change in severity of eczema symptoms and overall change in itch/pruritus items. There was also an investigator global impression of change item.
# Investigator's Global Assessment: The IGA is a clinical tool for assessing the current state/severity of a subject's AD. It is a static 5-point morphological assessment of overall disease severity, as determined by the investigator, using the clinical characteristics of erythema, infiltration, papulation, oozing, and crusting as guidelines. At each specified time point, the IGA was made without reference to previous scores. Scoring system ranges from 0 (=Clear) to 4 (=Severe).
# Eczema Area and Severity Index: The EASI scoring system is a standard clinical tool for assessing the severity of AD that takes into account the overall severity of erythema, infiltration/papulation, excoriation, and lichenification, as well as the extent of BSA affected with AD. The 4 clinical signs are each graded on a 4-point scale (0 to 3) for each of the 4 specified body regions (head and neck, upper extremities, lower extremities, and trunk). The EASI is a static assessment made without reference to previous scores.
# Body Surface Area: The extent of BSA affected by AD is a general indicator of disease severity and was measured throughout the study. The extent of BSA to which study treatment was applied was also recorded. For the purpose of approximate clinical estimation, the total palmar surface of the palm plus 5 digits was assumed to be approximately equivalent to 1% BSA.
# Total Severity Score: A single target lesion that measured at least 3 cm at Screening and Baseline and was representative of subject disease, but not located on hands, feet or genitalia, was selected at Baseline to assess efficacy in treating a discrete area rather than an overall average of all areas. […]
# [2] = rat subcutaneous 13-week toxicology study (NOAEL) and predicted safety margin; details: in vivo, sc, rat subcutaneous 3 mg/kg/day, read-out: NOAEL AUC(0-24)
# Text: The predicted maximum systemic exposure to Tapinarof in this study was expected to be lower than the no observed adverse effects level (NOAEL) identified in nonclinical toxicology studies.
# [3] = minipig 28 day toxicology, formulation F (NOAEL); assay type: in vivo; details: 3% [60 mg/kg/day]
# [4] = 0.5% BID, Week 8, interim analysis
# [5] = 0.5% QD, Week 8, interim analysis
# [6] = 1% BID, Week 8, interim analysis
# [7] = 1% QD, Week 8, interim analysis
structure (smiles),measurement,setting,value
"CC(C)c1c(O)cc(/C=C/c2ccccc2)cc1O [Tapinarof, 3,5-Dihydroxy-4-isopropyl-trans-stilbene]",EASI75 responders who maintained response from Week 12 to Week 16,[1]; 0.5% BID,82%
same,difference in probability of achieving EASI75 vs vehicle,[1]; 0.5% BID,42.6%
same,itch reduction in weekly average NRS (median),"[1]; 0.5% BID, interim analysis",−53.00%
same,IGA response rate (IGA 0 or 1 and ≥2-grade improvement),[1]; [4],35%
same,subjects with 75% reduction in EASI from Baseline,[1]; [4],59%
same,difference in probability of IGA response vs vehicle,"[1]; 0.5% BID, Week 12",22.4%
same,"expanded POEM item 8 (nights woken because of eczema), mean change","[1]; 0.5% BID, Week 12",−1.3
same,patients with minimum three-point improvement in itch NRS,"[1]; 0.5% BID, Week 12",33%
same,subjects reporting severity of AD symptoms as very improved,"[1]; 0.5% BID, Week 12",47%
same,IGA response rate (IGA 0 or 1 and ≥2-grade improvement),"[1]; 0.5% BID, Week 12, NRI",37%
same,probability of achieving EASI75,"[1]; 0.5% BID, Week 12",54.2%
same,probability of achieving IGA treatment success,"[1]; 0.5% BID, Week 12",28.7%
same,difference in probability of achieving EASI75 vs vehicle,[1]; 0.5% QD,28.9%
same,itch reduction in weekly average NRS (median),"[1]; 0.5% QD, interim analysis",−53.57%
same,IGA response rate (IGA 0 or 1 and ≥2-grade improvement),[1]; [5],40%
same,subjects with 75% reduction in EASI from Baseline,[1]; [5],35%
same,difference in probability of IGA response vs vehicle,"[1]; 0.5% QD, Week 12",15.7%
same,"expanded POEM item 8 (nights woken because of eczema), mean change","[1]; 0.5% QD, Week 12",−1.2
same,patients with minimum three-point improvement in itch NRS,"[1]; 0.5% QD, Week 12",29%
same,subjects reporting severity of AD symptoms as very improved,"[1]; 0.5% QD, Week 12",40%
same,IGA response rate (IGA 0 or 1 and ≥2-grade improvement),"[1]; 0.5% QD, Week 12, NRI",34%
same,probability of achieving EASI75,"[1]; 0.5% QD, Week 12",32.6%
same,probability of achieving IGA treatment success,"[1]; 0.5% QD, Week 12",18.3%
same,proportion of subjects with IGA treatment success,"[1]; 0.5% QD, Week 12, primary analysis",40%
same,subjects rating pruritus symptoms very improved or moderately improved,"[1]; 0.5% groups, Week 12",80-81%
same,EASI75 responders who maintained response from Week 12 to Week 16,[1]; 1% BID,63%
same,difference in probability of achieving EASI75 vs vehicle,[1]; 1% BID,74.5%
same,itch reduction in weekly average NRS (median),"[1]; 1% BID, interim analysis",−56.35%
same,IGA response rate (IGA 0 or 1 and ≥2-grade improvement),[1]; [6],35%
same,subjects with 75% reduction in EASI from Baseline,[1]; [6],45%
same,absolute change in percent BSA affected from baseline (mean),"[1]; 1% BID, Week 12",11.2
same,difference in probability of IGA response vs vehicle,"[1]; 1% BID, Week 12",61.5%
same,patients rating itch moderately improved to very improved,"[1]; 1% BID, Week 12",78%
same,patients with minimum three-point improvement in itch NRS,"[1]; 1% BID, Week 12",30%
same,reduction in total severity score (mean change),"[1]; 1% BID, Week 12",5.8
same,subjects reporting severity of AD symptoms as very improved,"[1]; 1% BID, Week 12",64%
same,IGA response rate (IGA 0 or 1 and ≥2-grade improvement),"[1]; 1% BID, Week 12, NRI",53%
same,probability of achieving EASI75,"[1]; 1% BID, Week 12",86.0%
same,probability of achieving IGA treatment success,"[1]; 1% BID, Week 12",67.7%
same,patients with 75% improvement in EASI score,"[1]; 1% BID, Week 12",60%
same,EASI75 responders who maintained response from Week 12 to Week 16,[1]; 1% QD,57%
same,difference in probability of achieving EASI75 vs vehicle,[1]; 1% QD,77.0%
same,itch reduction in weekly average NRS (median),"[1]; 1% QD, interim analysis",−57.14%
same,IGA response rate (IGA 0 or 1 and ≥2-grade improvement),[1]; [7],74%
same,subjects with 75% reduction in EASI from Baseline,[1]; [7],63%
same,absolute change in percent BSA affected from baseline (mean),"[1]; 1% QD, Week 12",11.6
same,difference in probability of IGA response vs vehicle,"[1]; 1% QD, Week 12",60.1%
same,patients rating itch moderately improved to very improved,"[1]; 1% QD, Week 12",86%
same,patients with minimum three-point improvement in itch NRS,"[1]; 1% QD, Week 12",32%
same,reduction in total severity score (mean change),"[1]; 1% QD, Week 12",5.5
same,subjects reporting severity of AD symptoms as very improved,"[1]; 1% QD, Week 12",59%
same,IGA response rate (IGA 0 or 1 and ≥2-grade improvement),"[1]; 1% QD, Week 12, NRI",46%
same,probability of achieving EASI75,"[1]; 1% QD, Week 12",80.7%
same,probability of achieving IGA treatment success,"[1]; 1% QD, Week 12",62.6%
same,patients with 75% improvement in EASI score,"[1]; 1% QD, Week 12",51%
same,subjects rating pruritus symptoms very improved or moderately improved,"[1]; 1% groups, Week 12",78-87%
same,subjects with minimum 3-point improvement in itch/pruritus,"[1]; Japanese population, 1% QD, Week 4 to Week 12",approximately 70%
same,subjects rating severity of itch very improved or moderately improved,"[1]; Tapinarof groups, Week 12",≥ 78%
same,subjects rating severity of eczema symptoms very improved or moderately improved,"[1]; active treatment groups, Week 12",> 80%
same,subjects rated by investigators as very improved or moderately improved,"[1]; adolescent population, active treatment groups",≥ 90%
same,AUC(0-t),[2],0.099 µg·h/mL
same,gender averaged NOAEL Cmax,[3],0.84 ng/mL
